Measurements from article PMC6063800 (Peptides, 2018).
Where a name gives a salt, the structure may show the parent alone. No end group written: not given here.

Tests used:
Bacillus subtilis 168 = assay: microbe, parasite or virus in culture; type: cell-based; settings: for MIC, BS: 168, 20 h
[1] = tested on: Escherichia coli ATCC 25922; assay: microbe, parasite or virus in culture; type: cell-based; settings: for MIC, EC: ATCC 25922, 20 h
[2] = tested on: Pseudomonas aeruginosa PAO1; assay: microbe, parasite or virus in culture; type: cell-based; settings: PAO1, 20 h
[3] = tested on: Klebsiella pneumoniae ATCC 13883; assay: microbe, parasite or virus in culture; type: cell-based; settings: for MIC, KP: ATCC 13883, 20 h
[4] = tested on: Staphylococcus aureus USA300; assay: microbe, parasite or virus in culture; type: cell-based; settings: for MIC, SA: USA300, 20 h
S. aureus USA300 biofilm = assay: Disruption of 24-h preformed biofilms; type: cell-based, Staphylococcus aureus; settings: linezolid in the presence of 1.56 μM temporin-1OLa versus antibiotic alone, XTT
S. aureus USA300 = assay: Checkerboard synergy of peptide and antibiotics; type: cell-based, Staphylococcus aureus; settings: in combination with temporin-1OLa
C. tropicalis ATCC 13803 = type: cell-based, Candida tropicalis; settings: ATCC 13803, 48 h
[5] = tested on: Candida albicans ATCC 10231; type: cell-based; settings: ATCC 10231, 48 h
C. glabrata ATCC 2001 = type: cell-based, Candida glabrata; settings: ATCC 2001, 48 h
[6] = tested on: Human red blood cells (hRBC); assay: Hemolytic assay; type: cell-based; settings: red cells of human, 1 h

Molecule	MIC (Bacillus subtilis 168; Bacillus subtilis, 168, 20 h, read-out: MIC, BS) [µM]	MIC ([1]; Escherichia coli, ATCC25922, 20 h, read-out: MIC, EC) [µM]	MIC ([2]; Pseudomonas aeruginosa, read-out: MIC, PA) [µM]	MIC ([3]; Klebsiella pneumoniae, ATCC13883, 20 h, read-out: MIC, KP) [µM]	MIC ([4]; Staphylococcus aureus, MRSA|USA300, 20 h, read-out: MIC, SA) [µM]	disruption of 24 h established biofilms by combination (S. aureus USA300 biofilm)	combined effect with the peptide (S. aureus USA300)	MIC, C. tropicalis (C. tropicalis ATCC 13803) [µM]	MIC, C. albicans [5] [µM]	MIC, BS (Bacillus subtilis 168) [µM]	MIC, EC [1] [µM]	MIC, C. glabrata (C. glabrata ATCC 2001) [µM]	MIC, PA [2] [µM]	MIC, KP [3] [µM]	MIC, SA [4] [µM]	HL50 (peptide concentration that causes 50% hemolysis) [6] [µM]
CN[C@H](CC(C)C)C(=O)N[C@H]1C(=O)N[C@@H](CC(N)=O)C(=O)N[C@H]2C(=O)N[C@H]3C(=O)N[C@H](C(=O)N[C@H](C(=O)O)c4cc(O)cc(O)c4-c4cc3ccc4O)[C@H](O)c3ccc(c(Cl)c3)Oc3cc2cc(c3O[C@@H]2O[C@H](CO)[C@@H](O)[C@H](O)[C@H]2O[C@H]2C[C@](C)(N)[C@H](O)[C@H](C)O2)Oc2ccc(cc2Cl)[C@H]1O [Vancomycin, vancomycin hydrochloride, reference compound]	> 3.1	> 50	> 50	> 50	0.78	–	–	–	–	–	–	–	–	–	–	–
CC(=O)NC[C@H]1CN(c2ccc(N3CCOCC3)c(F)c2)C(=O)O1 [linezolid]	–	–	–	–	–	reduce biofilms more effectively	additive effect	–	–	–	–	–	–	–	–	–
FLPIVGRLISGIL [temporin-CPb]	–	–	–	–	–	–	–	6.2 to 12.5	50	25 to 50	>50	>50	>50	>50	12.5	–
FLPLLASLFSRLF [temporin-1Oc]	–	–	–	–	–	–	–	1.6 to 3.1	25	12.5	>50	25	>50	>50	–	<12.5
FLSAITSILGKFF [temporin-1SPa]	–	–	–	–	–	–	–	6.2	25	12.5	>50	25	>50	>50	6.3	37.5
IPPFIKKVLTTVF [temporin-CPa]	–	–	–	–	–	–	–	3.1 to 6.2	25	50	12.5	12.5	>50	50	≥25	–
SILPTIVSFLSKVF [temporin-1Ga]	–	–	–	–	–	–	–	3.1	12.5	6.3	>50	12.5	>50	>50	3.1	12.5
